{
  "source": "ChEMBL document CHEMBL5252602",
  "about": "“Identification and in silicon binding study of a novel NR2B selective NMDAR antagonist” (Bioorg Med Chem Lett, 2023)",
  "key": {"SH-SY5Y [1]": {"tested_on": "SH-SY5Y", "assay": "Neuroprotective activity against human SH-SY5Y cells assessed as effect on NMDA mediated cell damage at 5 uM by MTT assay relative to control", "assay_type": "functional"}, "SH-SY5Y [2]": {"tested_on": "SH-SY5Y", "assay": "Neuroprotective activity against human SH-SY5Y cells assessed as effect on NMDA mediated cell damage at 0.5 uM by MTT assay relative to control", "assay_type": "functional"}, "SH-SY5Y [3]": {"tested_on": "SH-SY5Y", "assay": "Neuroprotective activity against human SH-SY5Y cells assessed as effect on NMDA mediated cell damage at 0.05 uM by MTT assay relative to control", "assay_type": "functional"}, "[4]": {"molecular_target": "Glutamate receptor ionotropic, NMDA 2B (Homo sapiens, UniProt Q05586+Q13224)", "sequence (Q13224 whole entry, one chain of several)": "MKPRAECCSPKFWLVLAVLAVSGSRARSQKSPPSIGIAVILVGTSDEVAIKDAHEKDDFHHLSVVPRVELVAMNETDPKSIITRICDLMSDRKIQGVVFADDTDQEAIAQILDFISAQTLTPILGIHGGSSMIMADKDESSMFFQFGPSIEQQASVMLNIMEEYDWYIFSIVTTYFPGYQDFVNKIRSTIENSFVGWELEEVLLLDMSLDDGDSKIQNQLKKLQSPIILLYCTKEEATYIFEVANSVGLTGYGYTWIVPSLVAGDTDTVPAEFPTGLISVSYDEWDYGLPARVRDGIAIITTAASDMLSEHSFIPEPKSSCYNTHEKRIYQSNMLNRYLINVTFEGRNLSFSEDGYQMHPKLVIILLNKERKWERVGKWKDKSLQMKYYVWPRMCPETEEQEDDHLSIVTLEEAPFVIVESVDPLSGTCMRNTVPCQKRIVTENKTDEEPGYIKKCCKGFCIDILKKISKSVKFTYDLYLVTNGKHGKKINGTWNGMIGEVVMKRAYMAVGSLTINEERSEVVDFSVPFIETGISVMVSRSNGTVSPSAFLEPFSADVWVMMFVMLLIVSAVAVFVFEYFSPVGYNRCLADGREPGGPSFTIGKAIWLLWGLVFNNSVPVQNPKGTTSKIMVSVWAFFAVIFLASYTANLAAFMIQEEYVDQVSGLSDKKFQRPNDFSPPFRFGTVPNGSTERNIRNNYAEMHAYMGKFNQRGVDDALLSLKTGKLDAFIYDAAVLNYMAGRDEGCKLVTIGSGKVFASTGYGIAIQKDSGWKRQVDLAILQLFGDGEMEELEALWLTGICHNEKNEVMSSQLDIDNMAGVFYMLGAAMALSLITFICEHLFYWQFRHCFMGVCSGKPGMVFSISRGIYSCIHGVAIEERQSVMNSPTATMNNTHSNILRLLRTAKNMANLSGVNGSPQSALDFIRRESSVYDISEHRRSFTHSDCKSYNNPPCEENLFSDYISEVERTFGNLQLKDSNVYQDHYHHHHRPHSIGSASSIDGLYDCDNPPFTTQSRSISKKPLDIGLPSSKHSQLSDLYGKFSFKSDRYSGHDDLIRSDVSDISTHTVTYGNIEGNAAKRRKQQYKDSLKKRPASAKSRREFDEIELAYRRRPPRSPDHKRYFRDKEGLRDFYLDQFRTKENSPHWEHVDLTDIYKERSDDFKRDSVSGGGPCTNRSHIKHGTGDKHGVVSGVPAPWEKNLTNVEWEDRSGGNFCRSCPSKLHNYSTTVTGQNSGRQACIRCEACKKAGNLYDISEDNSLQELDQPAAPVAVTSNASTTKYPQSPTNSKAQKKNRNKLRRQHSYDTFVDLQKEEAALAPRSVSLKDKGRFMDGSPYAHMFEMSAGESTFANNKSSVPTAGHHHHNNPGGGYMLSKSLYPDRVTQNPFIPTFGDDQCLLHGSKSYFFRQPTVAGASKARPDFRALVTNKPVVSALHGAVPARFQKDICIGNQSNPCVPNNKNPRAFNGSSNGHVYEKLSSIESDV", "assay": "Antagonist activity at NMDA receptor NR2B subunit (unknown origin)"}},
  "data": [
    {"smiles": "O=C(NNC(=O)[C@@H]1CCC2=Nc3ccc(Cl)cc3CN21)c1ccc(O)cc1", "values": [
      {"measurement": "Activity", "setting": "SH-SY5Y [1]", "value": 22.58, "unit": "%"},
      {"measurement": "Activity", "setting": "SH-SY5Y [2]", "value": 22.55, "unit": "%"},
      {"measurement": "Activity", "setting": "SH-SY5Y [3]", "value": 16.03, "unit": "%"}
    ]},
    {"smiles": "O=C(NNC(=O)[C@@H]1CCC2=Nc3ccc(Br)cc3CN21)c1ccc(F)cc1", "values": [
      {"measurement": "Activity", "setting": "SH-SY5Y [1]", "value": 19.48, "unit": "%"},
      {"measurement": "Activity", "setting": "SH-SY5Y [2]", "value": 19.88, "unit": "%"},
      {"measurement": "Activity", "setting": "SH-SY5Y [3]", "value": 23.87, "unit": "%"}
    ]},
    {"smiles": "O=C(NNC(=O)[C@@H]1CCC2=Nc3ccc(Br)cc3CN21)c1ccccc1", "values": [
      {"measurement": "Activity", "setting": "SH-SY5Y [1]", "value": 18.22, "unit": "%"},
      {"measurement": "Activity", "setting": "SH-SY5Y [2]", "value": 20.92, "unit": "%"},
      {"measurement": "Activity", "setting": "SH-SY5Y [3]", "value": 7.13, "unit": "%"}
    ]},
    {"smiles": "O=C(NCCc1cccc(O)c1)[C@@H]1CCC2=Nc3ccc(Br)cc3CN21", "values": [
      {"measurement": "Activity", "setting": "SH-SY5Y [1]", "value": 25.35, "unit": "%"},
      {"measurement": "Activity", "setting": "SH-SY5Y [2]", "value": 28.87, "unit": "%"},
      {"measurement": "Activity", "setting": "SH-SY5Y [3]", "value": 28.73, "unit": "%"}
    ]},
    {"smiles": "O=C(NCCc1cccc(O)c1)[C@@H]1CCC2=Nc3ccccc3CN21", "values": [
      {"measurement": "Activity", "setting": "SH-SY5Y [1]", "value": 24.42, "unit": "%"},
      {"measurement": "Activity", "setting": "SH-SY5Y [2]", "value": 29.17, "unit": "%"},
      {"measurement": "Activity", "setting": "SH-SY5Y [3]", "value": 29.63, "unit": "%"}
    ]},
    {"smiles": "O=C(NCCc1ccc(F)cc1)[C@@H]1CCC2=Nc3ccc(Br)cc3CN21", "values": [
      {"measurement": "Activity", "setting": "SH-SY5Y [1]", "value": -2.81, "unit": "%"},
      {"measurement": "Activity", "setting": "SH-SY5Y [2]", "value": 7.08, "unit": "%"},
      {"measurement": "Activity", "setting": "SH-SY5Y [3]", "value": 4.05, "unit": "%"}
    ]},
    {"smiles": "O=C(NCCc1ccc(F)cc1)[C@@H]1CCC2=Nc3ccc(Cl)cc3CN21", "values": [
      {"measurement": "Activity", "setting": "SH-SY5Y [1]", "value": 26.14, "unit": "%"},
      {"measurement": "Activity", "setting": "SH-SY5Y [2]", "value": 27.96, "unit": "%"},
      {"measurement": "Activity", "setting": "SH-SY5Y [3]", "value": 13.45, "unit": "%"}
    ]},
    {"smiles": "Nc1ccc(C(=O)NNC(=O)[C@@H]2CCC3=Nc4ccc(Br)cc4CN32)cc1", "values": [
      {"measurement": "Activity", "setting": "SH-SY5Y [1]", "value": 15.62, "unit": "%"},
      {"measurement": "Activity", "setting": "SH-SY5Y [2]", "value": 24.22, "unit": "%"},
      {"measurement": "Activity", "setting": "SH-SY5Y [3]", "value": 25.12, "unit": "%"}
    ]},
    {"smiles": "Nc1ccc(C(=O)NNC(=O)[C@@H]2CCC3=Nc4ccc(Cl)cc4CN32)cc1", "values": [
      {"measurement": "Activity", "setting": "SH-SY5Y [1]", "value": 20.43, "unit": "%"},
      {"measurement": "Activity", "setting": "SH-SY5Y [2]", "value": 25.28, "unit": "%"},
      {"measurement": "Activity", "setting": "SH-SY5Y [3]", "value": 30.71, "unit": "%"}
    ]},
    {"smiles": "Nc1ccc(CCNC(=O)[C@@H]2CCC3=Nc4ccc(Br)cc4CN32)cc1", "values": [
      {"measurement": "Activity", "setting": "SH-SY5Y [1]", "value": -11.03, "unit": "%"},
      {"measurement": "Activity", "setting": "SH-SY5Y [2]", "value": -15.08, "unit": "%"},
      {"measurement": "Activity", "setting": "SH-SY5Y [3]", "value": -15.74, "unit": "%"}
    ]},
    {"smiles": "Nc1ccc(CCNC(=O)[C@@H]2CCC3=Nc4ccc(Cl)cc4CN32)cc1", "values": [
      {"measurement": "Activity", "setting": "SH-SY5Y [1]", "value": -15.32, "unit": "%"},
      {"measurement": "Activity", "setting": "SH-SY5Y [2]", "value": -16.58, "unit": "%"},
      {"measurement": "Activity", "setting": "SH-SY5Y [3]", "value": -5.03, "unit": "%"}
    ]},
    {"smiles": "O=C(NCCc1ccc(O)cc1)[C@@H]1CCC2=Nc3ccc(Cl)cc3CN21", "values": [
      {"measurement": "Activity", "setting": "SH-SY5Y [1]", "value": 21.32, "unit": "%"},
      {"measurement": "Activity", "setting": "SH-SY5Y [2]", "value": 28.33, "unit": "%"},
      {"measurement": "Activity", "setting": "SH-SY5Y [3]", "value": 28.93, "unit": "%"}
    ]},
    {"smiles": "O=C(NCCc1ccccc1)[C@@H]1CCC2=Nc3ccc(Br)cc3CN21", "values": [
      {"measurement": "Activity", "setting": "SH-SY5Y [1]", "value": 10.59, "unit": "%"},
      {"measurement": "Activity", "setting": "SH-SY5Y [2]", "value": 7.54, "unit": "%"},
      {"measurement": "Activity", "setting": "SH-SY5Y [3]", "value": 11.08, "unit": "%"}
    ]},
    {"smiles": "COc1ccc(CCNC(=O)[C@@H]2CCC3=Nc4ccc(Cl)cc4CN32)cc1", "values": [
      {"measurement": "Activity", "setting": "SH-SY5Y [1]", "value": 30.66, "unit": "%"},
      {"measurement": "Activity", "setting": "SH-SY5Y [2]", "value": 30.19, "unit": "%"},
      {"measurement": "Activity", "setting": "SH-SY5Y [3]", "value": 17.35, "unit": "%"}
    ]},
    {"smiles": "COc1ccc(C(=O)NNC(=O)[C@@H]2CCC3=Nc4ccc(Cl)cc4CN32)cc1", "values": [
      {"measurement": "Activity", "setting": "SH-SY5Y [1]", "value": 12.17, "unit": "%"},
      {"measurement": "Activity", "setting": "SH-SY5Y [2]", "value": 20.2, "unit": "%"},
      {"measurement": "Activity", "setting": "SH-SY5Y [3]", "value": 19.6, "unit": "%"}
    ]},
    {"smiles": "O=C(NNC(=O)[C@@H]1CCC2=Nc3ccc(Cl)cc3CN21)c1ccc(F)cc1", "values": [
      {"measurement": "Activity", "setting": "SH-SY5Y [1]", "value": 17.26, "unit": "%"},
      {"measurement": "Activity", "setting": "SH-SY5Y [2]", "value": 20.68, "unit": "%"},
      {"measurement": "Activity", "setting": "SH-SY5Y [3]", "value": 22.58, "unit": "%"}
    ]},
    {"smiles": "O=C(NNC(=O)[C@@H]1CCC2=Nc3ccc(Cl)cc3CN21)c1ccccc1", "values": [
      {"measurement": "Activity", "setting": "SH-SY5Y [1]", "value": 19.76, "unit": "%"},
      {"measurement": "Activity", "setting": "SH-SY5Y [2]", "value": 24.25, "unit": "%"},
      {"measurement": "Activity", "setting": "SH-SY5Y [3]", "value": 26.91, "unit": "%"}
    ]},
    {"smiles": "O=C(NCCc1ccccc1)[C@@H]1CCC2=Nc3ccc(Cl)cc3CN21", "values": [
      {"measurement": "Activity", "setting": "SH-SY5Y [1]", "value": 10.01, "unit": "%"},
      {"measurement": "Activity", "setting": "SH-SY5Y [2]", "value": 5.78, "unit": "%"},
      {"measurement": "Activity", "setting": "SH-SY5Y [3]", "value": 13.21, "unit": "%"}
    ]},
    {"smiles": "COc1ccc(C(=O)NNC(=O)[C@@H]2CCC3=Nc4ccccc4CN32)cc1", "values": [
      {"measurement": "Activity", "setting": "SH-SY5Y [1]", "value": 22.42, "unit": "%"},
      {"measurement": "Activity", "setting": "SH-SY5Y [2]", "value": 17.74, "unit": "%"},
      {"measurement": "Activity", "setting": "SH-SY5Y [3]", "value": 12.59, "unit": "%"}
    ]},
    {"smiles": "COc1ccc(CCNC(=O)[C@@H]2CCC3=Nc4ccc(Br)cc4CN32)cc1", "values": [
      {"measurement": "Activity", "setting": "SH-SY5Y [1]", "value": 17.27, "unit": "%"},
      {"measurement": "Activity", "setting": "SH-SY5Y [2]", "value": 27.25, "unit": "%"},
      {"measurement": "Activity", "setting": "SH-SY5Y [3]", "value": 27.75, "unit": "%"}
    ]},
    {"smiles": "COc1ccc(C(=O)NNC(=O)[C@@H]2CCC3=Nc4ccc(Br)cc4CN32)cc1", "values": [
      {"measurement": "Activity", "setting": "SH-SY5Y [1]", "value": 19.77, "unit": "%"},
      {"measurement": "Activity", "setting": "SH-SY5Y [2]", "value": 15.94, "unit": "%"},
      {"measurement": "Activity", "setting": "SH-SY5Y [3]", "value": 9.01, "unit": "%"}
    ]},
    {"smiles": "O=C(NCCc1cccc(O)c1)[C@@H]1CCC2=Nc3ccc(Cl)cc3CN21", "values": [
      {"measurement": "Activity", "setting": "SH-SY5Y [1]", "value": 29.37, "unit": "%"},
      {"measurement": "Activity", "setting": "SH-SY5Y [2]", "value": 28.02, "unit": "%"},
      {"measurement": "Activity", "setting": "SH-SY5Y [3]", "value": 23.62, "unit": "%"}
    ]},
    {"smiles": "Cc1nccn1Cc1cc(-c2ccc(F)c(C(F)F)c2)cnn1", "note": "[EVT-101 FREE BASE]", "values": [
      {"measurement": "IC50", "setting": "[4]", "value": 17, "unit": "nM"}
    ]},
    {"smiles": "CC(C(O)c1ccc(O)cc1)N1CCC(Cc2ccccc2)CC1", "note": "(stereo not given) [IFENPRODIL]", "values": [
      {"measurement": "Activity", "setting": "SH-SY5Y [1]", "value": 35.81, "unit": "%"},
      {"measurement": "Activity", "setting": "SH-SY5Y [2]", "value": 22.57, "unit": "%"},
      {"measurement": "Activity", "setting": "SH-SY5Y [3]", "value": 16.4, "unit": "%"}
    ]}
  ]
}
